According to ChEMBL document CHEMBL1154880, “Hydroxylated sclerosporin derivatives from the marine-derived fungus Cadophora malorum” (J Nat Prod, 2010):
In brackets after ≈: the same amount, converted by molar mass. Activity calls are given as the source filed them. No cut-off for these calls is given here.

What was measured:
[1] = tested on: Escherichia coli; experiment: Antibacterial activity against Escherichia coli at 50 ug/disk; format: functional, organism-based
[2] = tested on: Priestia megaterium; experiment: Antibacterial activity against Bacillus megaterium at 50 ug/disk; format: functional, organism-based
[3] = tested on: Mycotypha microspora; experiment: Antifungal activity against Mycotypha microspora at 50 ug/disk; format: functional, organism-based
[4] = tested on: Aspergillus ruber; experiment: Antifungal activity against Eurotium rubrum at 50 ug/disk; format: functional, organism-based
[5] = tested on: Microbotryum violaceum; experiment: Antifungal activity against Microbotryum violaceum at 50 ug/disk; format: functional, organism-based
[6] = tested on: [Chlorella] fusca; experiment: Antialgal activity against Chlorella fusca at 50 ug/disk; format: functional, organism-based; conditions: Scenedesmus fuscus
[7] = tested on: 3T3-L1; experiment: Inhibition of adipogenesis in mouse 3T3L1 cells assessed as triglyceride accumulation after 7 days; format: functional, cell-based; conditions: 3T3-L1, 168 h
[8] = tested on: 3T3-L1; experiment: Inhibition of adipogenesis in mouse 3T3L1 cells assessed as triglyceride accumulation at 100 ug/ml after 7 days relative to control; format: functional; design: scale not given: the % may be the effect or the level left
[9] = tested on: 3T3-L1; experiment: Inhibition of adipogenesis in mouse 3T3L1 cells assessed as triglyceride accumulation at 20 ug/ml after 7 days relative to control; format: functional; design: scale not given: the % may be the effect or the level left
[10] = tested on: 3T3-L1; experiment: Inhibition of adipogenesis in mouse 3T3L1 cells assessed as triglyceride accumulation at 4 ug/ml after 7 days relative to control; format: functional; design: scale not given: the % may be the effect or the level left
[11] = tested on: 3T3-L1; experiment: Cytotoxicity against mouse 3T3L1 cells assessed as cell viability after 7 days; format: cell-based; conditions: 3T3-L1, 168 h
[12] = Cytotoxicity against mouse 3T3L1 cells assessed as cell viability at 100 ug/ml after 7 days relative to control; format: cell-based; conditions: 3T3-L1 cells, read-out: Activity
[13] = Cytotoxicity against mouse 3T3L1 cells assessed as cell viability at 20 ug/ml after 7 days relative to control; format: cell-based; conditions: 3T3-L1 cells, read-out: Activity
[14] = Cytotoxicity against mouse 3T3L1 cells assessed as cell viability at 4 ug/ml after 7 days relative to control; format: cell-based; conditions: 3T3-L1 cells, read-out: Activity
[15] = target: Neutrophil elastase (Homo sapiens) (UniProt P08246); experiment: Inhibition of human neutrophil elastase at 100 uM
[16] = tested on: NCI-H460; experiment: Cytotoxicity against human NCI-H460 cells at 100 uM after 48 hrs by sulforhodamine B assay; format: functional, cell-based
[17] = tested on: MCF7; experiment: Cytotoxicity against human MCF7 cells at 100 uM after 48 hrs by sulforhodamine B assay; format: functional, cell-based
[18] = tested on: SF-268; experiment: Cytotoxicity against human SF268 cells at 100 uM after 48 hrs by sulforhodamine B assay; format: functional, cell-based
[19] = target: Dual specificity tyrosine-phosphorylation-regulated kinase 1A (Homo sapiens) (UniProt Q13627); experiment: Inhibition of DYRK1A at […]
[20] = target: Cyclin-dependent kinase 5 (Homo sapiens) (UniProt Q00535); experiment: Inhibition of CDK5 at […]
[21] = tested on: Human immunodeficiency virus 1; experiment: Antiviral activity against HIV1 infected in human MT4 cells assessed as inhibition of virus-induced cytopathogenic effect at 50 ug/ml after 5 days by MTT assay; format: functional, organism-based
[22] = tested on: Human immunodeficiency virus 2; experiment: Antiviral activity against HIV2 infected in human MT4 cells assessed as inhibition of virus-induced cytopathogenic effect at 50 ug/ml after 5 days by MTT assay; format: functional, organism-based
[23] = tested on: Human gammaherpesvirus 4; experiment: Antiviral activity against Epstein-Barr virus at 100 ug/ml; format: functional, organism-based
[24] = tested on: Plasmodium berghei; experiment: Antiplasmodial activity against Plasmodium berghei sporozoites expressing GFP infected in hepatocytes at 25 uM by flow cytometry; format: functional, organism-based; conditions: Hepatocyte
[25] = tested on: SARS-CoV; experiment: Antiviral activity against SARS virus infected in african green monkey Vero76 cells assessed as inhibition of virus-induced cytopathogenic effect at 100 ug/ml after 3 days by neutral red uptake assay; format: functional, organism-based; conditions: Severe acute respiratory syndrome-related coronavirus, Vero 76
[26] = tested on: Influenza A virus; experiment: Antiviral activity against influenza A H5N1 subtype at 100 ug/ml; format: functional, organism-based
[27] = tested on: Influenza B virus; experiment: Antiviral activity against influenza B at 100 ug/ml; format: functional, organism-based
[28] = tested on: 3T3-L1; experiment: Inhibition of adipogenesis in mouse 3T3L1 cells assessed as triglyceride accumulation at 50 ug/ml after 7 days relative to control; format: functional; design: scale not given: the % may be the effect or the level left
[29] = tested on: 3T3-L1; experiment: Inhibition of adipogenesis in mouse 3T3L1 cells assessed as triglyceride accumulation at 25 ug/ml after 7 days relative to control; format: functional; design: scale not given: the % may be the effect or the level left
[30] = Cytotoxicity against mouse 3T3L1 cells assessed as cell viability at 50 ug/ml after 7 days relative to control; format: cell-based; conditions: 3T3-L1 cells, read-out: Activity
[31] = Cytotoxicity against mouse 3T3L1 cells assessed as cell viability at 25 ug/ml after 7 days relative to control; format: cell-based; conditions: 3T3-L1 cells, read-out: Activity

Chain of Cyclin-dependent kinase 5 (Homo sapiens) (Q00535 whole entry, looked up): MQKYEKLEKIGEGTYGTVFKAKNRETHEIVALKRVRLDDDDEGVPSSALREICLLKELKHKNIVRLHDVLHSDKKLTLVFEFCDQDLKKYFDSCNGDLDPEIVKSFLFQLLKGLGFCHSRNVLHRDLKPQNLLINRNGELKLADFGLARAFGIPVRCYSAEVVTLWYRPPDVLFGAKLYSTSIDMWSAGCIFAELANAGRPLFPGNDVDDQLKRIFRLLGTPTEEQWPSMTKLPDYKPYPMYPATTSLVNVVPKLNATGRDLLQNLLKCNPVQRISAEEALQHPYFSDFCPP
Chain of Neutrophil elastase (Homo sapiens) (P08246 whole entry): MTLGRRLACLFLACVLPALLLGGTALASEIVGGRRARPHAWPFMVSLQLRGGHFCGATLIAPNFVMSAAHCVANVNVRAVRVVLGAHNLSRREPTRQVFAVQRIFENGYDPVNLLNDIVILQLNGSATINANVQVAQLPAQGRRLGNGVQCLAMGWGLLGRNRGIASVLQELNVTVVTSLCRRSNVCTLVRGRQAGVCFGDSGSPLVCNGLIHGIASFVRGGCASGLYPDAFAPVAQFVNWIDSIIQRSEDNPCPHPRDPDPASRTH

SMILES	Activity [1]	Activity [2]	Activity [3]	Activity [4]	Activity [5]	Activity [6]	IC50 [7]	Activity [8]	IC50 [11]	viability at 168 h, 100 ug/ml [12]	further results
CC1=C[C@@H]2[C@@H](C(C)CO)CC=C(C(=O)O)[C@@H]2CC1 (some centres undefined)	inactive	inactive	inactive	inactive	inactive	inactive	–	–	–	–	–
CC1=C[C@H]2[C@@H](CC1)C(C(=O)O)=CC[C@@H]2C(C)(C)O	inactive	inactive	inactive	inactive	inactive	inactive	–	–	–	–	–
CC1=C[C@@H]2[C@@H](C(C)C)[C@H](O)C=C(C(=O)O)[C@@H]2CC1	inactive	inactive	inactive	inactive	inactive	inactive	53 mg/L (≈ 212 µM)	26%	76 mg/L (≈ 304 µM)	46%	Activity [9]: 133%; Activity [10]: 117%; viability at 168 h, 20 ug/ml [13]: 79%; viability at 168 h, 4 ug/ml [14]: 82%
CC1=C[C@@H]2[C@@H](C(C)C)CC=C(C(=O)O)[C@@H]2CC1	inactive	inactive	inactive	inactive	inactive	inactive	–	–	–	–	–
CC(C)[C@H]1CC=C(C(=O)O)[C@@H]2CCC(CO)=C[C@H]12	inactive	inactive	inactive	inactive	inactive	inactive	–	–	–	–	inhibition [15]: inactive; inhibition [16]: inactive; inhibition [17]: inactive; inhibition [18]: inactive; inhibition [19]: inactive; inhibition [20]: inactive; inhibition [21]: inactive; inhibition [22]: inactive; inhibition [23]: inactive; inhibition [24]: inactive; Activity [25]: inactive; Activity [26]: inactive; Activity [27]: inactive
NC[C@H](O)c1ccc(O)c(O)c1 [NOREPINEPHRINE]	–	–	–	–	–	–	69 mg/L (≈ 408 µM)	33%	> 100 mg/L	69%	Activity [28]: 64%; Activity [29]: 71%; viability at 168 h, 50 ug/ml [30]: 102%; viability at 168 h, 25 ug/ml [31]: 123%
